Data on 2 molecules can be found in patent US20190184069A1, “ANTIMICROBIAL COMPOSITIONS COMPRISING MINOCYCLINE AND DEGRADATION PRODUCTS OF OXIDIZED CELLULOSE” (Omrix Biopharmaceuticals Ltd., priority 2017, published 2019).

Test [1] relates to S. aureus. As to the kind of experiment: Primary stage MIC measurement of antibiotic alone (OD 600 nm growth curves, 18 h). It is filed as cell-based, Staphylococcus aureus. The source says: The following day, the turbidity of the actively-growing broth culture was adjusted with Calcium-adjusted Mueller Hinton broth II (MHBII) to be equivalent to that of a 0.5 McFarland standard (1×10^8 CFU/ml). The broth culture was maintained under ambient conditions prior to use.
The method used in this stage was based on the classic Minimum Inhibitory Concentration (MIC) measurements, as described by the Clinical and Laboratory Standards Institute (CLSI) document M07-A9: “Method for Dilution Antimicrobial Susceptibility Test for Bacteria that Grow Aerobically”. While classic MIC measurements require visual inspection of plates for bacterial growth after 18 hours, growth was monitored in the present study according to optical density (OD) at 600 nm, using an ELISA reader (MultiSkan™ FC ELISA reader, Thermo Fisher Scientific, Massachusetts, USA), thereby obtaining bacterial growth curves for tested antibiotic solutions.
Columns 1 and 3-12: 100 μl of MHBII alone was added to each well.
[…]: 200 μl of a solution of antibiotic in MHBII at the highest concentration to be tested was added to each well.
A series of 2-fold dilutions was performed, wherein 100 μl of solution of antibiotic was withdrawn from each well of column 2, transferred to the corresponding well of column 3, and mixed.
The dilution was then repeated by transfer from column 3 to column 4, and so on, until column 11, when the 100 μl of solution of antibiotic withdrawn from each well of column 11 was discarded.
The 5×10^6 CFU/ml stock suspension which had been prepared in advance was transferred into a reservoir and 10 μl of the stock suspension were added into each well of columns 2-11 using a multichannel pipette to obtain a final 5×10^5 CFU/ml suspension.
The plate was then incubated at 37° C. with shaking in the ELISA reader and the optical density at 600 nm was read every 20 minutes for a total of 18 hours.
The average OD reading obtained for each antibiotic concentration was calculated and plotted against time to obtain a growth curve.
The MIC was determined as the first antibiotic concentration at which […] by the end of the 18-hour period.

Test [2] concerns S. aureus. As to the kind of experiment: Tertiary stage: antimicrobial activity (ET50/MIC) of extract of degradation products of antibiotic-impregnated ORC pads, single or combination. In kind it is cell-based, Staphylococcus aureus. Particulars: for Fold reduction in MIC concentration: primary MIC (antibiotic alone) versus antibiotic-impregnated ORC (tertiary) MIC; for MIC times higher than that of the primary stage MIC: antibiotic impregnated onto ORC pad. As for the experimental part: Solutions comprising different concentrations of antibiotics to be tested were prepared in methanol.
Blank ORC pads of dimensions 1×1.5 inch, weighing between 65-75 mg (70 mg on average), in duplicate, were immersed in the antibiotic solutions and then dried using a rotary evaporator to provide extract of degradation products of antibiotic-impregnated ORC pads.
15 ml test tubes containing 3 ml of sterile PBS were prepared, and the antibiotic-impregnated ORC pads were immersed in the tubes and incubated for 3-5 hours at ambient temperature on a roller mixer (Stuart, Cat#SRT9D).
Each of the above extracts was filtered out using a sterile 0.8/0.2 μm syringe filter into a clean 15 ml tube. These extraction fluids are referred to herein as “extract of degradation products of antibiotic-impregnated ORC”.
Briefly, ORC pads weighing on average 70 mg each were impregnated with the selected antibiotic. Extracts of degradation products of antibiotic-impregnated ORC were prepared by immersion and incubation in 3 ml of sterile PBS for 3 hours at ambient temperature. The ORC degeneration products were then removed, and any remaining ORC particles were filtered out using a […] syringe filter. This extraction fluid was then diluted 10-fold into Muller Hinton growth medium containing bacteria. Bacterial growth was monitored every 20 min for a total of 18 hours according to optical density (OD) at 600 nm, using an ELISA reader.
Since the study included many possible combinations of two antibiotics, each with their own different concentration range, a matrix of possible antibiotic concentrations was designed, and degradation products of ORC were prepared accordingly (see Table 10). Since all the possible combinations could not be fitted into one 96 well plate, a series of MIC experiments were carried out.

“And” between values parts separate entries of the source, which are not always exact repeats. Equal values may be shown once.

For `CN(C)c1ccc(O)c2c1C[C@H]1C[C@H]3[C@H](N(C)C)C(O)=C(C(N)=O)C(=O)[C@@]3(O)C(O)=C1C2=O` [Minocycline, minocycline], in the test on S. aureus [1], the “MIC as single antibiotics in the absence of ORC (first stage MIC results)” value was 0.25 mg/L. Moreover, the “MIC fold lower in the presence of degradation products of ORC than in their absence” value in the test with S. aureus [2] is “at least 5.8 fold”. In addition, in the test with S. aureus [2] (combination with rifampin or clindamycin, with ORC degradation products), the “Fold reduction of the MIC for minocycline with at least one more antibiotic impregnated on ORC, versus minocycline alone” value was found to be 200 fold. Also, the ET50 in the test with S. aureus [2] (impregnated ORC extract, minocycline 1.26 ng/ml, clindamycin 0.00 ng/ml) was 637.6 min; with S. aureus [2] (impregnated ORC extract, minocycline 1.26 ng/ml, rifampin 0.00 ng/ml), 585.4 min; in the test with S. aureus [2] (impregnated ORC extract, minocycline 2.52 ng/ml, clindamycin 0.00 ng/ml) it was 1072 min; in the test on S. aureus [2] (impregnated ORC extract, minocycline 2.52 ng/ml, rifampin 0.00 ng/ml) it was 799.9 min; in the test with S. aureus [2] (impregnated ORC extract, minocycline 5.04 ng/ml, clindamycin 0.00 ng/ml), over 2000 min; in the test with S. aureus [2] (impregnated ORC extract, minocycline 5.04 ng/ml, rifampin 0.00 ng/ml), over 2000 min. The ET50 is over 2000 min in the test on S. aureus [2] (impregnated ORC extract, minocycline 6.30 ng/ml, clindamycin 0.00 ng/ml); over 2000 min in the test on S. aureus [2] (impregnated ORC extract, minocycline 6.30 ng/ml, rifampin 0.00 ng/ml); 1145 min in the test with S. aureus [2] (minocycline-impregnated ORC extract, impregnation fluid 5 μg/ml, 0.00027 % on ORC, 6.30 ng/ml in MIC); 2000 min with S. aureus [2] (minocycline-impregnated ORC extract, impregnation fluid 10 μg/ml, 0.00054 % on ORC, 12.60 ng/ml in MIC); over 2000 min in the test on S. aureus [2] (minocycline-impregnated ORC extract, impregnation fluid 20 μg/ml, 0.00108 % on ORC, 25.20 ng/ml in MIC); over 2000 min with S. aureus [2] (minocycline-impregnated ORC extract, impregnation fluid 40 μg/ml, 0.00216 % on ORC, 50.40 ng/ml in MIC). Further, the “Fold reduction in MIC concentration” value in the test with S. aureus [2] is 20 and 19.85.

Regarding `CO[C@H]1/C=C/O[C@@]2(C)Oc3c(C)c(O)c4c(O)c(c(/C=N/N5CCN(C)CC5)c(O)c4c3C2=O)NC(=O)/C(C)=C\C=C\[C@H](C)[C@H](O)[C@@H](C)[C@@H](O)[C@@H](C)[C@H](OC(C)=O)[C@@H]1C` [Rifampin, rifampin], in the test on S. aureus [1], the “MIC as single antibiotics in the absence of ORC (first stage MIC results)” value was found to be 0.015 mg/L. Further, the “Change of antimicrobial activity when impregnated onto the ORC pad versus first stage MIC” value in the test on S. aureus [2] is reported as “impaired”. Also, the entries for the “MIC times higher than that of the primary stage MIC” value with S. aureus [2] and in the test on S. aureus [2] (listed as rifampin) were 50 times and “about 50 times”, respectively. Besides, the ET50 came out at 406.8 min with S. aureus [2] (impregnated ORC extract, minocycline 0.00 ng/ml, rifampin 73.29 ng/ml); 442.3 min in the test with S. aureus [2] (impregnated ORC extract, minocycline 0.00 ng/ml, rifampin 146.58 ng/ml); 450.4 min in the test on S. aureus [2] (impregnated ORC extract, minocycline 0.00 ng/ml, rifampin 293.16 ng/ml); 418.1 min with S. aureus [2] (impregnated ORC extract, minocycline 0.00 ng/ml, rifampin 366.45 ng/ml); 643 min with S. aureus [2] (rifampin-impregnated ORC extract, impregnation fluid 50 μg/ml, 0.015705 % on ORC, 366.45 ng/ml in MIC); 1396 min in the test on S. aureus [2] (rifampin-impregnated ORC extract, impregnation fluid 100 μg/ml, 0.03141 % on ORC, 732.9 ng/ml in MIC). Besides, the ET50 was over 2000 min in the test on S. aureus [2] (rifampin-impregnated ORC extract, impregnation fluid 150 μg/ml, 0.047115 % on ORC, 1099.35 ng/ml in MIC) and over 2000 min in the test on S. aureus [2] (rifampin-impregnated ORC extract, impregnation fluid 200 μg/ml, 0.06282 % on ORC, 1465.8 ng/ml in MIC). In addition, in the test with S. aureus [2], the “Fold reduction in MIC concentration” value was 0.019.
